Test results reported in ChEMBL document CHEMBL1150905, “Cytotoxic quassinoids from Simaba cedron” (J Nat Prod, 1998).
Converted amounts (≈) assume the structure as drawn.

What follows are molecules tested on P388 (assay: Cytotoxicity against mouse P388 cells after 3 days by MTT assay). Conditions: P388, 72 h.
Type: functional, cell-based

Compound | IC50
CC1=CC(=O)[C@@H](O)[C@]2(C)[C@H]3[C@@]4(O)OC[C@@]35[C@@H](C[C@@H]12)OC(=O)C[C@H]5[C@@H](C)[C@H]4O [CHAPARRINONE] | 0.92 µg/mL (≈ 2.43 µM)
CC1=C[C@H](O)[C@@H](O)[C@]2(C)[C@H]3[C@@]4(O)OC[C@@]35[C@@H](C[C@@H]12)OC(=O)C[C@H]5[C@@H](C)[C@H]4O [CHAPARRIN] | > 100 µg/mL
CC1=CC(=O)O[C@H]1[C@@]1(C)C[C@H]2OC(=O)[C@H](O)[C@H]3[C@@H](C)[C@@H](O)[C@]4(O)OC[C@@]32[C@@H]14 [CEDRONOLACTONE C] | 49 µg/mL (≈ 129 µM)
CC[C@@H](C)C(=O)O[C@H]1C(=O)O[C@@H]2C[C@H]3C(C)=CC(=O)[C@@H](O)[C@]3(C)[C@H]3[C@@H](O)[C@H](O)[C@]4(C)OC[C@]32[C@@H]14 [SIMALIKALACTONE D] | 0.0055 µg/mL (≈ 0.0115 µM)
CC1=C[C@H](O)[C@@H](O)[C@]2(C)[C@H]3[C@@]4(O)OC[C@]35[C@H]([C@@H](C)[C@H]4O)[C@@H](O)C(=O)O[C@@H]5C[C@@H]12 [GLAUCARUBOL] | > 100 µg/mL
CC(=O)O[C@H]1C[C@@](C)([C@H]2OC(=O)C[C@@H]2CO)C2=CC(=O)O[C@@H]3C[C@@H]4[C@](C)(C(=O)C=C[C@@]4(C)O)[C@@H]1[C@]23C [GUANEPOLIDE] | 70 µg/mL (≈ 139 µM)
CC1=CC(=O)O[C@H]1[C@@]1(C)C[C@H]2OC(=O)C[C@H]3[C@@H](C)[C@@H](O)[C@]4(O)OC[C@]23[C@@H]14 [CEDRONOLACTONE B] | 6.5 µg/mL (≈ 17.8 µM)
CC1=CC(=O)[C@@H](O)[C@]2(C)[C@H]3[C@@H](O)[C@H](O)[C@@]4(C)OC[C@@]35[C@@H](C[C@@H]12)OC(=O)[C@H](OC(=O)CC(C)C)[C@@H]45 [CEDRONOLACTONE A] | 0.0074 µg/mL (≈ 0.0155 µM)
CC1=CC(=O)O[C@@H]1[C@@]1(C)C[C@H]2OC(=O)[C@H](O)[C@H]3[C@@H](C)[C@@H](O)[C@]4(O)OC[C@@]32[C@@H]14 [POLYANDROL] | 17 µg/mL (≈ 44.7 µM)
CC1=CC(=O)[C@@H](O)[C@]2(C)[C@H]3[C@@H](O)[C@H](O)[C@@]4(C)OC[C@@]35[C@@H](C[C@@H]12)OC(=O)[C@H](O)[C@@H]45 [YADANZIOLIDE C] | 2.4 µg/mL (≈ 6.08 µM)
CC1=CC(=O)[C@@H](O)[C@]2(C)[C@H]3[C@]4(O)OC[C@]35[C@H]([C@@H](C)[C@H]4O)[C@@H](O)C(=O)O[C@@H]5C[C@@H]12 [GLAUCARUBOLONE] | 1.4 µg/mL (≈ 3.55 µM)
CC1=CC(=O)O[C@@H]1[C@@]1(C)C[C@H]2OC(=O)C[C@H]3[C@@H](C)[C@@H](O)[C@]4(O)OC[C@]23[C@@H]14 [AILANQUASSIN A] | 39 µg/mL (≈ 107 µM)
